Data on ten compounds can be found in patent US20120077813A1, “Imidazole Substituted Pyrimidines Useful in the Treatment of Glycogen Synthase Kinase-3 Related Disorders such as Alzheimer's Disease” (ASTRAZENECA AB, priority 2009, published 2012).

Structures can show the parent of a compound that is named as a salt.

One series has as its target T1, recombinant human GSK3β (Homo sapiens, UniProt P49841).
T1 construct: purchased Dundee University, UK
Description: ATP competition in scintillation proximity GSK3β assay. As to conditions: for Ki: mean value, Ki calculated with Km of ATP 20 μM; for Selectivity GSK3β vs CDK2: ratio of CDK2 Ki to GSK3β Ki. In kind it is biochemical. The protocol:
Determination of ATP Competition in Scintillation Proximity GSK3β Assay.
The inhibition experiments were carried out in duplicate with 10 concentrations of the inhibitor in 384 well clear-bottom microtitre plates. A biotinylated peptide substrate (Biotin-Ala-Ala-Glu-Glu-Leu-Asp-Ser-Arg-Ala-Gly-Ser(PO3H2)-Pro-Gln-Leu (AstraZeneca, Lund)), was added at a final concentration of 1 mmol/L in an assay buffer (pH 7.0) containing 0.1 mU recombinant human GSK3β (Dundee University, UK), (1 nmol/L active enzyme), 10 mmol/L morpholinepropanesulfonic acid (MOPS), 0.3 mmol/L EDTA, 0.01% (v/v) β-mercaptoethanol, 0.003% (w/v) polyethylene 23 lauryl ether (Brij 35), 0.4% glycerol and 0.02 mg bovine serum albumine (BSA) and preincubated for 10 minutes. The reaction was initiated by the addition of 0.06 mCi [γ-33P]ATP (Amersham, UK) and unlabelled ATP in 30 mmol/L Mg(Ac)2 to a final concentration of […] ATP. The final assay volume was […]. Blank controls without peptide substrate were used. After incubation for 15 min at room temperature, the reaction was terminated by the addition of stop solution containing 1.3 mmol/L EDTA, 13 mmol/L ATP, 0.02% Triton™X-100 and 0.15 mg streptavidin coated SPA beads. After a 5 minutes centrifugation at 2000 rpm, the radioactivity was measured in a liquid scintillation counter (1450 MicroBeta Trilux, Perkin Elmer, Finland). The Km value of ATP for GSK3β, used to calculate the inhibition constants (Ki) of the various compounds, was 20 μM.

For a further series, the target named is Cdk2/cyclin E (Homo sapiens, UniProt P24941). Description: ATP competition in scintillation proximity Cdk2 assay. The conditions noted are these: mean value; Ki calculated with Km of ATP 0.5 μM. The class given is biochemical. The protocol:
Determination of ATP Competition in Scintillation Proximity Cdk2 Assay.
The competiton experiments were carried out in duplicate with 10 concentrations of the inhibitor in 96 well clear-bottom microtiter plates. Cdk2/cyclin E enzyme was added at a concentration corresponding to a 80 times dilution of the partially purified bacluloviral infected insect cell lysate in a buffer containing 50 mmol/L HEPES, 10 mmol/L MnCl2, 1 mmol/L dithiothreitol (DTT), 100 μmol/L NaF, 100 μmol/L sodium vanadate, 10 mmol/L sodium glycerophosphate, 5 μg/mL aprotinin, 2.5 μg/mL leupeptin and 100 μmol/L PMSF, pH 7.5. Blank controls without enzyme were used. The reaction was initiated by the addition of 1.25 μg GST-Rb, 0.15 μCi [γ-33P]ATP and unlabelled ATP at a final concentration of 0.1 μmol/L. The final assay volume was 50 μL. After incubation for 60 min at room temperature, each reaction was terminated by the addition of 150 μL stop solution containing 45 μL protein A coated SPA beads in 50 mmol/L HEPES, 3.28 mg antiglutathione-S-transferase, and 5.5 mmol/L EDTA and 35 μmol/L ATP. The plate was centrifuged at 2000 rpm for 5 min and the radioactivity was determined in a liquid scintillation counter (1450 MicroBeta Trilux, Perkin Elmer, Finland). The Km value of ATP for Cdk2 used to calculate the inhibition constants (Ki) of the various compounds, was 0.5 μM

Series [1] can be described thus: CaCo-2 permeability assay Alt 1 (pH gradient 6.5/7.4). In kind it is in vitro ADME. As to conditions: human, Alt 1: apical to basolateral, pH 6.5 apically, pH 7.4 basolaterally, typically 10 μM, mean value. The protocol: (§1) CaCo-2 Cell Permeability Assay
(§2) CaCo-2 cells were seeded onto filter membrane at a density of 340500 cells/cm2 for 24 well plates (0.33 cm2/well). The cells were grown in culture medium consisting of Dulbecco's modified Eagle's medium with glucose and L-glutamine supplemented with 10% fetal bovine serum, 100 U/ml penicillin-G, and 100 μg/ml streptomycin and 1% (v/v) 100X non-essential amino acids. The culture medium was replaced every second day and the cells were maintained at 37° C., 95% relative humidity, and 5% CO2. Permeability studies were conducted with the monolayers cultured for 21-28 days with the cell passage numbers between 25 and 50.
Alt 1. the CaCo-2 Permeability Assay Used in Examples 3, 5, 6 and Reference Example.
The CaCo-2 permeabilty assay were performed in the apical to basolateral directions under gradient pH-gradient conditions (pH 6.5 apically, pH 7.4 basolaterally). HBSS containing 25 mM HEPES (pH 7.4) and 25 mM MES (pH 6.5) was used as transport medium. Fully differentiated cell monolayers were washed with transport medium. The drug solutions, typically 10 μM, were prepared in transport medium, pH 6.5 (1% DMSO). The permeability experiment was started by adding 0.2 ml drug solutions on the apical side. The basolateral side contained 0.8 ml of transport medium, pH 7.4. Three inserts with cells and one without were assayed for each drug. Cells were kept in an incubator at 37° C. and shaking. 200 μl samples were taken at 45 and 90 min from the basolateral side. The same volume of transport buffer was added to the basolateral compartments after the first sampling. Compound recovery was assessed by calculating the sum of the cumulatively transported amount and the amount left in the donor side against the initial amount of drug. The samples were analysed online using liquid chromatography tandem mass spectrometry (LC/MS/MS). […] The samples of 25 μl were analysed by liquid scintillation.
(§3) The apparent permeability coefficient is calculated as follows: […]
A general note: Passage across Caco-2 layers is used to estimate intestinal permeability.

Series [2] is described as follows: CaCo-2 A to B permeability assay Alt 2 (pH 7.4). In kind it is in vitro ADME. As to conditions: human, Alt 2: apical to basolateral, pH 7.4, 10 μM, mean value. The protocol: as §1, §2
Alt 2. the CaCo-2 A to B Permeability Assay Used in Examples 2-4, 7-8.
The CaCo-2 A to B assay was performed in the apical to basolateral direction (each in duplicates) at pH 7.4. HBSS containing 25 mM HEPES (pH 7.4) was used as transport medium. The drug solutions, typically 10 μM, were prepared in transport medium (1% DMSO). Studies of six compounds can be performed in one 24 well plate that generates one 96 deepwell analysis plate (maximum capacity 6 plates=36 compounds and 6 deep well plates). The CaCo-2 cell monolayers were washed once with HBSS for 10 minutes prior to start. Transport buffer, 800 μL, (HBSS, pH 7.4) is first dispensed to the basal side of the monolayer. The assay is then initiated by addition of 225 μL of each compound (10 μM) to the apical side. Samples are withdrawn directly (Donor 0) and at 60 min (Donor end and Receiver 60) post addition of test compound. 25 μL and 150 μL are withdrawn from the donor compartment and the receiver compartment, respectively. During washing-step and incubation with compounds the transwell plates are placed in a shaking incubator at 480 rpm and 37° C. The integrity of the epithelial cell monolayer is monitored by measuring the amount of radiolabelled [^14C]mannitol (low passive paracellular diffusion) in the donor compartment at time 0 min to 60 min. Luma Plate 96-well is used for analysis of [14C]mannitol. Compound recovery was assessed by calculating the sum of the cumulatively transported amount and the amount left in the donor side against the initial amount of drug. The samples were analysed online using liquid chromatography tandem mass spectrometry (LC/MS/MS).
as §3
where ΔQ/Δt is the total amount of substance transported into the receiver chamber per unit time, A is the surface area (cm^2), and C0 the starting donor concentration. The apparent permeability Papp is expressed in ×10-6 cm/sec.

T1 sequence (P49841 whole entry): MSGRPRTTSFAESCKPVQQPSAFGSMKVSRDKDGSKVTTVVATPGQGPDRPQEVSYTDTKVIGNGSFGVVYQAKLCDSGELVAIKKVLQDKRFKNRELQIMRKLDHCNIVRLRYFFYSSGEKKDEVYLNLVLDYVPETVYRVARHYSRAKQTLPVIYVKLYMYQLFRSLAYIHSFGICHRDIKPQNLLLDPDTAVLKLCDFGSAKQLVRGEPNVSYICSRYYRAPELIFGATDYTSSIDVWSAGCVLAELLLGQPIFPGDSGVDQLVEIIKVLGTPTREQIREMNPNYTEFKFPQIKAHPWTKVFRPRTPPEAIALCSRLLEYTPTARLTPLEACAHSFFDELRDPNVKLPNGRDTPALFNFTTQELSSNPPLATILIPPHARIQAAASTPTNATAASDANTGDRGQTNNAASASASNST

By melting point is commonly meant the temperature, or range, at which the solid turns liquid. For `Cc1ncc(-c2nc(Nc3cc(F)c(CN4CCOCC4)cc3F)ncc2F)n1C1CCOCC1` (as salt: succinate) [Ex 5, N-(2,5-Difluoro-4-(morpholinomethyl)phenyl)-5-fluoro-4-(2-methyl-1-(tetrahydro-2H-pyran-4-yl)-1H-imidazol-5-yl)pyrimidin-2-amine], the melting point was determined as 177 °C.

As a reminder, the Ki is a measure of affinity in units of concentration, obtained from inhibition or displacement. As a reminder, the Papp A→B is how fast a substance crosses the layer from the apical side. As for `Cc1ncc(-c2nc(Nc3ccc(CN4CCOCC4)cc3F)ncc2F)n1C1CCOCC1` [Ex 1, 5-Fluoro-N-(2-fluoro-4-(morpholinomethyl)phenyl)-4-(2-methyl-1-(tetrahydro-2H-pyran-4-yl)-1H-imidazol-5-yl)pyrimidin-2-amine], at recombinant human GSK3β, the inhibition constant Ki was 15 nM and the “Selectivity GSK3β vs CDK2” value is 20. The Ki at Cdk2/cyclin E is 308 nM. For the same compound, the apparent permeability from apical to basolateral (Papp A→B) at 90 min, 10 µM in series [1] was found to be 36 ×10⁻⁶ cm/s.

Consider `Cc1ncc(-c2nc(Nc3ccc(CN4CCOC[C@H]4C)cc3F)ncc2F)n1C1CCOCC1` [Ex 2, 5-Fluoro-N-(2-fluoro-4-(((R)-3-methylmorpholino)methyl)phenyl)-4-(2-methyl-1-(tetrahydro-2H-pyran-4-yl)-1H-imidazol-5-yl)pyrimidin-2-amine hydrochloride], for which, on recombinant human GSK3β, the Ki is 5 nM and the “Selectivity GSK3β vs CDK2” value came to 58. Also, on Cdk2/cyclin E, the Ki is 290 nM. Besides, the Papp A→B at 60 min, 10 µM in series [2] is 39 ×10⁻⁶ cm/s.

With `Cc1ncc(-c2nc(Nc3ccc(CN4CCOC[C@@H]4C)cc3F)ncc2F)n1C1CCOCC1` [Ex 3, 5-Fluoro-N-(2-fluoro-4-(((S)-3-methylmorpholino)methyl)phenyl)-4-(2-methyl-1-(tetrahydro-2H-pyran-4-yl)-1H-imidazol-5-yl)pyrimidin-2-amine hydrochloride], at recombinant human GSK3β, the inhibition constant Ki is 30 nM and the “Selectivity GSK3β vs CDK2” value was 31. Further, the Ki at Cdk2/cyclin E was 940 nM. This compound also gave an apical-to-basolateral permeability (Papp A→B) at 60 min, 10 µM in series [2] of 56 ×10⁻⁶ cm/s.

As for `Cc1ncc(-c2nc(Nc3ccc(CN4[C@@H](C)COC[C@@H]4C)cc3F)ncc2F)n1C1CCOCC1` [Ex 4, N-(4-(((3S,5S)-3,5-Dimethylmorpholino)methyl)-2-fluorophenyl)-5-fluoro-4-(2-methyl-1-(tetrahydro-2H-pyran-4-yl)-1H-imidazol-5-yl)pyrimidin-2-amine hydrochloride], the Ki is 11 nM on recombinant human GSK3β and 318 nM on Cdk2/cyclin E. Further, the “Selectivity GSK3β vs CDK2” value at recombinant human GSK3β turned out to be 29. In series [2], this compound showed a Papp A→B at 60 min, 10 µM of 44 ×10⁻⁶ cm/s.

For the compound `Cc1ncc(-c2nc(Nc3cc(F)c(CN4CCOCC4)cc3F)ncc2F)n1C1CCOCC1` [Ex 5, N-(2,5-Difluoro-4-(morpholinomethyl)phenyl)-5-fluoro-4-(2-methyl-1-(tetrahydro-2H-pyran-4-yl)-1H-imidazol-5-yl)pyrimidin-2-amine], at recombinant human GSK3β, the Ki was 4.9 nM and the “Selectivity GSK3β vs CDK2” value came out at 26. In addition, the inhibition constant (Ki) on Cdk2/cyclin E is 127 nM. Further, the Papp A→B at 90 min, 10 µM in series [1] stood at 45 ×10⁻⁶ cm/s.

On to `Cc1ncc(-c2nc(Nc3cc(F)c(CN4CCOCC4)cc3F)ncc2F)n1C1CCOCC1` [Ex 6, N-(2,5-Difluoro-4-(morpholinomethyl)phenyl)-5-fluoro-4-(2-methyl-1-(tetrahydro-2H-pyran-4-yl)-1H-imidazol-5-yl)pyrimidin-2-amine hydrochloride], for which the inhibition constant (Ki) was 4.9 nM on recombinant human GSK3β and 133 nM on Cdk2/cyclin E. Moreover, the “Selectivity GSK3β vs CDK2” value on recombinant human GSK3β (hydrochloride) came to 27.

On to `Cc1ncc(-c2nc(Nc3cc(F)c(CN4CCOC[C@@H]4C)cc3F)ncc2F)n1C1CCOCC1` [Ex 7, N-(2,5-Difluoro-4-(((S)-3-methylmorpholino)methyl)phenyl)-5-fluoro-4-(2-methyl-1-(tetrahydro-2H-pyran-4-yl)-1H-imidazol-5-yl)pyrimidin-2-amine], for which, at recombinant human GSK3β, the inhibition constant Ki is 11 nM and the “Selectivity GSK3β vs CDK2” value is recorded as 16. Also, the inhibitory constant (Ki) on Cdk2/cyclin E is 175 nM. Moreover, in series [2], the apical-to-basolateral permeability (Papp A→B) at 60 min, 10 µM stood at 44 ×10⁻⁶ cm/s.

`Cc1ncc(-c2nc(Nc3cc(F)c(CN4[C@@H](C)COC[C@@H]4C)cc3F)ncc2F)n1C1CCOCC1` [Ex 8, N-(4-(((3S,5S)-3,5-Dimethylmorpholino)methyl)-2,5-difluorophenyl)-5-fluoro-4-(2-methyl-1-(tetrahydro-2H-pyran-4-yl)-1H-imidazol-5-yl)pyrimidin-2-amine]: the Ki is 7.7 nM on recombinant human GSK3β and 222 nM at Cdk2/cyclin E. Also, the “Selectivity GSK3β vs CDK2” value at recombinant human GSK3β worked out at 29. The same compound came in with an apical-to-basolateral permeability (Papp A→B) at 60 min, 10 µM in series [2] of 40 ×10⁻⁶ cm/s.

Turning to `Cc1ncc(-c2nc(Nc3ccc(CN4CCOCC4)cc3)ncc2F)n1C1CCOCC1` [Reference example, 5-fluoro-4-(2-methyl-1-(tetrahydro-2H-pyran-4-yl)-1H-imidazol-5-yl)-N-(4-(morpholinomethyl)phenyl)pyrimidin-2-amine, reference compound], the Ki on recombinant human GSK3β was 8.1 nM; at Cdk2/cyclin E, 110 nM. Besides, on recombinant human GSK3β, the “Selectivity GSK3β vs CDK2” value is reported as 14. In addition, the apical-to-basolateral permeability (Papp A→B) at 90 min, 10 µM in series [1] was determined as 26 ×10⁻⁶ cm/s.
